Assay results taken from US20250129067A1 (Progentos Therapeutics, Inc., priority 2021, published 2025).

Tests used:
[1] = target: PDGFRα (Homo sapiens (Human), UniProt P16234); experiment: PDGFRα kinase enzyme assay (Promega PDGFRα Kinase Enzyme System, ADP-Glo); type: biochemical; details: 11-point dose response, 10,000 nM to 0.169 nM; 150 uM ATP; BLQ = below limit of quantitation; read-out: IC50 Values on PDGFRα Kinase Inhibition, IC50
Procedure: The PDGFRα enzyme assays were conducted per the manufacturer's directions (Promega PDGFRα Kinase Enzyme System and ADP Glo Assay Cat #V8011). […] 20 ng of purified PDGFRα protein was added to the test article. […] ADP-Glo was added to halt the kinase reaction and deplete the remaining ATP. Kinase detection reagent, containing luciferase and luciferin, was used to convert the ADP signal into luminescence. Luminescence was measured using a Molecular Devices Spectramax ID5 and compared to a standard curve to determine kinase activity. IC50s were calculated using Prism 9, Graphpad software.

[2] = test system: Oligodendrocyte progenitor cells (OPCs); experiment: In vitro OPC differentiation assay, GPR17 expression (immunocytochemistry); details: 72 hours, fold change over vehicle; for GPR17 Fold Induction (Over Vehicle; 3 μM): 3 μM (10× concentration, final 0.3 μM); for GPR17 Fold Induction (Over Vehicle; 5 μM): 5 μM (10× concentration, final 0.5 μM)

Chain of PDGFRα (P16234 24-1089): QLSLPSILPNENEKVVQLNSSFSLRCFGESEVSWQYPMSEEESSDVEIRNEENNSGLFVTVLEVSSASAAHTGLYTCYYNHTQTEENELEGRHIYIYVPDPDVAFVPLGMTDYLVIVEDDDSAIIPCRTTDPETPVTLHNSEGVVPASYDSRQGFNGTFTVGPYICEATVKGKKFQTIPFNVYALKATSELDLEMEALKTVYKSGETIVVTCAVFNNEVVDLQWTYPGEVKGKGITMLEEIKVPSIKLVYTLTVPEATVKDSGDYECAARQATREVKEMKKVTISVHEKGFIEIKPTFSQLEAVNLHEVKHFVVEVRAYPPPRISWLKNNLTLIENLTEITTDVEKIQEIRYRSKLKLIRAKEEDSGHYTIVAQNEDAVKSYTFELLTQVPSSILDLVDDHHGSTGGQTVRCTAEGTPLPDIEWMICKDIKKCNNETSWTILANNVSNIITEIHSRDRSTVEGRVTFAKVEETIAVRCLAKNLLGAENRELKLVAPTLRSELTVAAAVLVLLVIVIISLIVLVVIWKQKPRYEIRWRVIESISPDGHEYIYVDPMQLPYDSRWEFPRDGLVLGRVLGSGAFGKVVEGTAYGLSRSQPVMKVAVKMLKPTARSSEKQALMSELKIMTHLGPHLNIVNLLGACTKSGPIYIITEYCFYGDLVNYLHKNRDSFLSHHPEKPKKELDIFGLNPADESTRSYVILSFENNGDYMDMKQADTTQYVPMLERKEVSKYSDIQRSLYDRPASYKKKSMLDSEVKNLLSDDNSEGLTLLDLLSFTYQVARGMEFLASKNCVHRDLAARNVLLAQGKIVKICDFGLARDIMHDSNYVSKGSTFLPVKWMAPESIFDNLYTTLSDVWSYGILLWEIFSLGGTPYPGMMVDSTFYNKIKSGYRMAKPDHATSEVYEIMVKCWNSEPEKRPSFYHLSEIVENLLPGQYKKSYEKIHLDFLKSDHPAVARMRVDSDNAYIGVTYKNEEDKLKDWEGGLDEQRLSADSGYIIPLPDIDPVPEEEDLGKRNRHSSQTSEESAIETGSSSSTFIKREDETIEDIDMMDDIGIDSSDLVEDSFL

| Structure (SMILES) | IC50 [1] | GPR17 Fold Induction (Over Vehicle; 3 μM) [2] | GPR17 Fold Induction (Over Vehicle; 5 μM) [2] |
| --- | --- | --- | --- |
| Cn1cc(-c2ccn3ncc(N4CCN(c5ncc(Cc6ccccc6)cn5)CC4)c3c2)cn1 [Compound 4, 3-[4-(5-benzylpyrimidin-2-yl)piperazin-1-yl]-5-(1-methyl-1H-pyrazol-4-yl)pyrazolo[1,5a]pyridine] | > 10 µM |  |  |
| Cn1cc(-c2ccc3c(N4CCN(c5ncc(Cc6ccccc6)cn5)CC4)nnn3c2)cn1 [Compound 9, 3-[4-(5-benzylpyrimidin-2-yl)piperazin-1-yl]-6-(1-methyl-1H-pyrazol-4-yl)[1,2,3]triazolo[1,5-a]pyridine] | > 10 µM | 1.88 |  |
| Cn1cc(-c2ccc3c(N4CCNCC4)cnn3c2)cn1 [Compound 12, 1-[6-(1-methylpyrazol-4-yl)pyrazolo[1,5-a]pyridin-3-yl]piperazine] | > 10 µM | 0.68 |  |
| Cn1cc(-c2ccc3c(N4CCN(C(=O)OCC5CCOCC5)CC4)cnn3c2)cn1 [Compound 14, Tetrahydro-2H-pyran-4-ylmethyl 4-[6-(1-methyl-1H-pyrazol-4-yl)pyrazolo[1,5-a]pyridin-3-yl]piperazine-1-carboxylate] | 4.31 µM | 1.11 |  |
| CN1CCC(OC(=O)N2CCN(c3cnn4cc(-c5cnn(C)c5)ccc34)CC2)CC1 [Compound 19, 1-methylpiperidin-4-yl 4-[6-(1-methyl-1H-pyrazol-4-yl)pyrazolo[1,5-a]pyridin-3-yl]piperazine-1-carboxylate] | > 10 µM | 0.83 |  |
| CN1CCC(COC(=O)N2CCN(c3cnn4cc(-c5cnn(C)c5)ccc34)CC2)CC1 [Compound 20, (1-methylpiperidin-4-yl)methyl 4-[6-(1-methyl-1H-pyrazol-4-yl)pyrazolo[1,5-a]pyridin-3-yl]piperazine-1-carboxylate] | > 10 µM | 0.58 |  |
| Cn1cc(-c2cn3ncc(N4CCN(c5ncc(Cc6ccccc6)cn5)CC4)c3cn2)cn1 [Compound 22, 3-[4-(5-Benzylpyrimidin-2-yl)piperazin-1-yl]-6-(1-methyl-1H-pyrazol-4-yl)pyrazolo[1,5-a]pyrazine] | > 10 µM | 6.13 | 3.46 |
| Cn1cc(-c2ccn3c(N4CCN(c5ncc(Cc6ccccc6)cn5)CC4)nnc3c2)cn1 [Compound 24, 3-[4-(5-benzylpyrimidin-2-yl)piperazin-1-yl]-7-(1-methyl-1H-pyrazol-4-yl)[1,2,4]triazolo[4,3-a]pyridine] | > 10 µM | 0.54 |  |
| Cn1cc(-c2ccc3c(N4CCN(c5ncc(C(=O)c6ccc(F)cc6)cn5)CC4)cnn3c2)cn1 [Compound 25, (4-fluorophenyl)(2-{4-[6-(1-methyl-1H-pyrazol-4-yl)pyrazolo[1,5-a]pyridin-3-yl]piperazin-1-yl}pyrimidin-5-yl)methanone] | > 10 µM | 1.07 |  |
| Cn1cc(-c2ccc3c(N4CCN(C(=O)OC(C)(C)C)CCC4=O)cnn3c2)cn1 [Compound 27, tert-butyl 4-[6-(1-methyl-1H-pyrazol-4-yl)pyrazolo[1,5-a]pyridine-3-yl]-5-oxo-1,4-diazepane-1-carboxylate] | > 10 µM | 0.96 |  |
| Cn1cc(-c2ccc3c(N4CCN(C(=O)OC(C)(C)C)CC4=O)cnn3c2)cn1 [Compound 28, tert-butyl 4-[6-(1-methyl-1H-pyrazol-4-yl)pyrazolo[1,5-a]pyridine-3-yl]-3-oxopiperazine-1-carboxylate] | > 10 µM | 1.84 |  |
| CC(C)OC(=O)N1CCN(c2cnn3cc(-c4cnn(C)c4)ccc23)CC1 [Compound 31, isopropyl 4-[6-(1-methyl-1H-pyrazol-4-yl)pyrazolo[1,5-a]pyridin-3-yl]piperazine-1-carboxylate] | 0.244 µM | 9.76 | 6.22 |
| Cn1cc(-c2ccc3c(N4CCN(C(=O)OC5CCOCC5)CC4)cnn3c2)cn1 [Compound 39, tetrahydro-2H-pyran-4-yl 4-[6-(1-methyl-1H-pyrazol-4-yl)pyrazolo[1,5-a]pyridin-3-yl]piperazine-1-carboxylate] | > 10 µM | 1.78 |  |
| Cn1cc(-c2ccc3c(N4CCCN(C(=O)OC(C)(C)C)CC4)cnn3c2)cn1 [Compound 40, tert-butyl 4-(6-(1-methyl-1H-pyrazol-4-yl)pyrazolo[1,5-a]pyridin-3-yl)-1,4-diazepane-1-carboxylate] | 2.42 µM | 1.27 |  |
| Cn1cc(-c2ccc3c(N4CCN(c5ncc(CN6CCCCC6)cn5)CC4)cnn3c2)cn1 [Compound 42, 6-(1-methyl-1H-pyrazol-4-yl)-3-{4-[5-(piperidin-1-ylmethyl)pyrimidin-2-yl]piperazin-1-yl}pyrazolo[1,5-a]pyridine] | 8.25 µM | 10.21 | 4.64 |
| CN(C)CCn1cc(-c2ccc3c(N4CCN(c5ncc(Cc6ccccc6)cn5)CC4)cnn3c2)cn1 [Compound 43, 2-(4-{3-[4-(5-benzylpyrimidin-2-yl)piperazin-1-yl]pyrazolo[1,5-a]pyridin-6-yl}-1H-pyrazol-1-yl)-N,N-dimethylethanamine] | 0.385 µM | 12.48 | 6.92 |
| Cn1cc(-c2ccc3c(N4CCN(C(=O)OC(C)(C)C)CC4)cnn3n2)cn1 [Compound 45, Tert-butyl 4-[6-(1-methyl-1H-pyrazol-4-yl)pyrazolo[1,5-b]pyridazin-3-yl]piperazine-1-carboxylate] | 1.39 µM | 1.39 |  |
| CC(C)NC(=O)N1CCN(c2cnn3cc(-c4cnn(C)c4)ccc23)CC1 [Compound 47, N-isopropyl 4-[6-(1-methyl-1H-pyrazol-4-yl)pyrazolo[1,5-a]pyridin-3-yl]piperazine-1-carboxamide] | 3.99 µM | 1.13 |  |
| Cn1cc(-c2ccc3c(N4CC5(CN(c6ncc(Cc7ccccc7)cn6)C5)C4)cnn3c2)cn1 [Compound 48, 3-[6-(5-benzylpyrimidin-2-yl)-2,6-diazaspiro[3.3]hept-2-yl]-6-(1-methyl-pyrazol-4-yl)pyrazolo[1,5-a]pyridine] | > 10 µM | 2.75 |  |
| Cn1cc(-c2ccc3c(N4CCN(C5=NCC(c6ccccc6)O5)CC4)cnn3c2)cn1 (stereo not drawn) [Compound 56, 6-(1-Methyl-1H-pyrazol-4-yl)-3-[4-(5-phenyl-4,5-dihydro-1,3-oxazol-2-yl)piperazin-1-yl]pyrazolo[1,5-a]pyridine] | 1.44 µM | 4.54 |  |
| C[C@@H](OC(=O)N1CCN(c2cnn3cc(-c4cnn(C)c4)ccc23)CC1)C1CCCCC1 [Compound 57, (1R)-1-cyclohexylethyl 4-[6-(1-methyl-1H-pyrazol-4-yl)pyrazolo[1,5-a]pyridin-3-yl]piperazine-1-carboxylate] | 5.58 µM | 5.28 |  |
| Cn1cc(-c2ccc3c(C4=CCN(c5ncc(Cc6ccccc6)cn5)CC4)cnn3c2)cn1 [Compound 60, 3-[1-(5-benzylpyrimidin-2-yl)-1,2,3,6-tetrahydropyridin-4-yl]-6-(1-methyl-1H-pyrazol-4-yl)pyrazolo[1,5-a]pyridine] | 5.03 µM | 2.92 |  |
| Cn1cc(-c2ccc3c(N4CCN(c5ncc(CC6CCCCC6)cn5)CC4)cnn3c2)cn1 [Compound 62, 3-{4-[5-(cyclohexylmethyl)pyrimidin-2-yl]piperazin-1-yl}-6-(1-methyl-1H-pyrazol-4-yl)pyrazolo[1,5-a]pyridine] | 0.415 µM | 6.53 |  |
| Cn1cc(-c2ccn3c(N4CCN(C(=O)OC(C)(C)C)CC4)cnc3n2)cn1 [Compound 87] |  | 1.43 |  |
| CN(CCCN(C)c1cnn2cc(-c3cnn(C)c3)ccc12)c1ncc(Cc2ccccc2)cn1 [Compound 130] |  | 1.57 |  |
| Cn1cc(-c2ccc3c(N4CCN(C(=O)OCc5ccc(Cl)cc5)CC4)cnn3c2)cn1 [Compound 198, 4-chlorobenzyl 4-(6-(1-methyl-1H-pyrazol-4-yl)pyrazolo[1,5-a]pyridin-3-yl)piperazine-1-carboxylate] |  | 9.23 |  |
| Cn1cc(-c2ccc3c(N4CCN(Cc5ccc(Cl)cc5)CC4)cnn3c2)cn1 [Compound 202, 3-(4-(4-chlorobenzyl)piperazin-1-yl)-6-(1-methyl-1H-pyrazol-4-yl)pyrazolo[1,5-a]pyridine] |  | 1.94 |  |
| Cn1cc(-c2ccc3c(CCc4ncc(Cc5ccccc5)cn4)cnn3c2)cn1 [Compound 305, 3-(2-(5-benzylpyrimidin-2-yl)ethyl)-6-(1-methyl-1H-pyrazol-4-yl)pyrazolo[1,5-a]pyridine] |  | 1.15 |  |
